Laboratory results: US5998362A, “Conjugates useful in the treatment of prostate cancer” (priority 1997, dated 1999)
Where a SMILES comes first, the peptide text is derived from it. [ ]: non-standard residue; d: D form. The star is where a group is joined. Doxorubicin(3'-N) = COc1cccc2c1C(=O)c1c(O)c3c(c(O)c1C2=O)C[C@@](O)(C(=O)CO)C[C@@H]3O[C@H]1C[C@H](N*)[C@H](O)[C@H](C)O1; Decanoyl(3,6,9-trioxa) = COCCOCCOCC(=O)*; hArg = N=C(N)NCCCC[C@H](N)C(=O)O; X4 = O=C([C@H](O)[C@@H](O)CO)*; Chg = N[C@H](C(=O)O)C1CCCCC1; Nle = CCCC[C@H](N)C(=O)O; Glycolyl = O=C(CO)*

Legend:
free PSA = free PSA (Homo sapiens, UniProt P07288); test: Recognition of oligopeptide-doxorubicin conjugates by free PSA (time to 50% cleavage, HPLC); assay type: biochemical; parameters: required for 50% cleavage of the noted oligopeptides with enzymatically active free PSA
Protocol: If no salt is indicated for the conjugate, the free conjugate was tested.

DuPRO cells = test: In vitro cytotoxicity of peptidyl derivatives of doxorubicin, Alamar Blue assay, DuPRO; assay type: cell-based; conditions: 3 days incubation, read-out: DuPRO cell kill EC 50 (μM), value in parentheses
Protocol: (§1) The cytotoxicities of the cleaveable oligopeptide-doxorubicin conjugates, prepared as described in Examples 3-6, against a line of cells which is known to be killed by unmodified doxorubicin was assessed with an Alamar Blue assay. Specifically, cell cultures of LNCap prostate tumor cells or DuPRO cells in 96 well plates was diluted with medium containing various concentrations of a given conjugate (final plate well volume of 200 μl). The cells were incubated for 3 days at 37° C., 20 μl of Alamar Blue is added to the assay well. The cells were further incubated and the assay plates were read on a EL-310 ELISA reader at the dual wavelengths of 570 and 600 nm at 4 and 7 hours after addition of Alamar Blue. Relative percentage viability at the various concentration of conjugate tested was then calculated versus control (no conjugate) cultures. If no salt is indicated, the free conjugate was tested.

[1] = test system: LNCap prostate tumor cells; test: In vitro cytotoxicity of peptidyl derivatives of doxorubicin, Alamar Blue assay, LNCaP; assay type: cell-based
Protocol: as §1

Chain of free PSA (P07288 25-261): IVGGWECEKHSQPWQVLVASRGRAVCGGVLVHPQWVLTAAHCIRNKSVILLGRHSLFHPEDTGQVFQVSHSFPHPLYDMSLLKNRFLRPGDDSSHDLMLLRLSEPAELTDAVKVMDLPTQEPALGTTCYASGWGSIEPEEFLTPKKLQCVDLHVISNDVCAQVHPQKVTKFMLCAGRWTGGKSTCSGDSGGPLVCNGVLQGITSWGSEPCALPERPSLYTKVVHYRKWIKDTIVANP

## CCCC[C@H](NC(=O)[C@H](CO)NC(=O)[C@H](CCC(N)=O)NC(=O)[C@H](Cc1ccc(O)cc1)NC(=O)[C@H](CO)NC(=O)[C@H](CO)NC(=O)[C@H](CCCCNC(=N)N)NC(=O)CO)C(=O)N[C@H]1C[C@H](O[C@H]2C[C@](O)(C(=O)CO)Cc3c(O)c4c(c(O)c32)C(=O)c2c(OC)cccc2C4=O)O[C@@H](C)[C@H]1O [2-hydroxyacetyl-hRSSYQ-SNle-DOX(3'), 2-hydroxyacetyl-hArgSerSerTyrGln-SerNle-DOX (3')] (Glycolyl-[hArg]SSYQS[Nle]-{Doxorubicin(3'-N)})
Free PSA; Table 3, alternative PSA digestion buffer 12 mM Tris pH8.0, 25 mM NaCl, 0.5 mM CaCl2
  Time to 50% Substrate Cleavage by York PSA (Min), value marked *: 60 min

## COc1cccc2c1C(=O)c1c(O)c3c(c(O)c1C2=O)C[C@@](O)(C(=O)CO)C[C@@H]3O[C@H]1C[C@H](NC(=O)[C@H](CC(C)C)NC(=O)[C@H](CO)NC(=O)[C@H](CCC(N)=O)NC(=O)[C@@H](NC(=O)[C@H](CCCCNC(=N)N)NC(=O)[C@H](O)[C@@H](O)CO)C2CCCCC2)[C@H](O)[C@H](C)O1 [(2R,3S) 2,3,4-trihydroxybutanoyl-hArgChgGln-SerLeu-DOX (3')] (X4-[hArg][Chg]QSL-{Doxorubicin(3'-N)})
Free PSA; Table 3, DOX conjugates
  Substrate cleavage by York PSA at 4 HOUR: 0%

## N-[2-{2-(2-methoxyethoxy)ethoxy}acetyl]-Ser-Ser-Ser-Chg-Gln-Ser-Leu-Dox [PEG(2)-SSSChgQ-SL-DOX(3')]
Free PSA; Table 3, DOX conjugates, buffer 50 mM Tris pH7.4, 140 mM NaCl, conjugate:PSA 100 to 1
  Time to 50% Substrate Cleavage by York PSA: 60 min
DuPRO cells
  EC50: > 100 µM
[1]; LNCaP cells, 72 h (3 days) incubation, Alamar Blue, read-out: LNCaP Cell Kill in 72 HRS, {48 HRS} EC 50
  EC50: 10 µM

## COCCOCCOCC(=O)N[C@@H](CCCCNC(=N)N)C(=O)N[C@H](C(=O)N[C@@H](CCC(N)=O)C(=O)N[C@@H](CO)C(=O)N[C@@H](CC(C)C)C(=O)N[C@H]1C[C@H](O[C@H]2C[C@](O)(C(=O)CO)Cc3c(O)c4c(c(O)c32)C(=O)c2c(OC)cccc2C4=O)O[C@@H](C)[C@H]1O)C1CCCCC1 [PEG(2)-hRChgQ-SL-DOX(3'), PEG(2)-hArgChgGln-SerLeu-DOX (3')] ({Decanoyl(3,6,9-trioxa)}-[hArg][Chg]QSL-{Doxorubicin(3'-N)})
[1]; Table 4, DOX conjugates, abbreviation not defined
  Solubility remark in the cell kill column (INSOLUBLE / PS): INSOLUBLE

## COCCOCCOCC(=O)N[C@@H](CO)C(=O)N[C@@H](CO)C(=O)N[C@@H](CO)C(=O)N[C@H](C(=O)N[C@@H](CCC(N)=O)C(=O)N[C@@H](CO)C(=O)N[C@H](CC(C)C)C(=O)N[C@H]1C[C@H](O[C@H]2C[C@](O)(C(=O)CO)Cc3c(O)c4c(c(O)c32)C(=O)c2c(OC)cccc2C4=O)O[C@@H](C)[C@H]1O)C1CCCCC1 [PEG(2)-SSSChgQ-S(dL)-DOX(3'), PEG(2)-SerSerSerChgGln-Ser(dLeu)-DOX (3')]
Free PSA; Table 3, DOX conjugates, 3 hours
  Substrate cleavage by York PSA at 3 HOUR: 46%

## COCCOCCOCC(=O)N[C@@H](CCCCN)C(=O)N[C@@H](Cc1ccc(O)cc1)C(=O)N[C@@H](CCC(N)=O)C(=O)N[C@@H](CO)C(=O)N[C@@H](CO)C(=O)N[C@@H](CO)C(=O)N[C@@H](CC(C)C)C(=O)N[C@H]1C[C@H](O[C@H]2C[C@](O)(C(=O)CO)Cc3c(O)c4c(c(O)c32)C(=O)c2c(OC)cccc2C4=O)O[C@@H](C)[C@H]1O [PEG(2)-KYQ-SSSL-DOX(3'), PEG(2)-LysTyrGln-SerSerSerLeu-DOX (3')] ({Decanoyl(3,6,9-trioxa)}-KYQSSSL-{Doxorubicin(3'-N)})
Free PSA; Table 3, DOX conjugates
  Substrate cleavage by York PSA at 4 HOUR: 20%

## COc1cccc2c1C(=O)c1c(O)c3c(c(O)c1C2=O)C[C@@](O)(C(=O)CO)C[C@@H]3O[C@H]1C[C@H](NC(=O)[C@H](CC(C)C)NC(=O)[C@H](CO)NC(=O)[C@H](CCC(N)=O)NC(=O)[C@H](Cc2ccc(O)cc2)NC(=O)[C@H](CO)NC(=O)[C@H](CO)NC(=O)[C@H](CCCCNC(=N)N)NC(=O)CO)[C@H](O)[C@H](C)O1 [2-hydroxyacetyl-hRSSYQ-SL-DOX(3'), 2-hydroxyacetyl-hArgSerSerTyrGln-SerLeu-DOX (3')] (Glycolyl-[hArg]SSYQSL-{Doxorubicin(3'-N)})
DuPRO cells
  EC50: > 100 µM
